Measurements reported in patent publication US20230044943A1, “Pharmaceutical Combinations” (ARRAY BIOPHARMA INC., priority 2016, published 2023).

Columns and labels:
[1] = Tolerability (body weight change, adverse events) in study TRP-377-HT29-XEF; type: in vivo; conditions: mean ± SEM, day of maximum change in parentheses; HT-29 tumor-bearing nude mice; LGX818 20 mg/kg po qd, MEK162 3.5 mg/kg po bid, cetuximab 20 mg/kg ip 2qw
Description: Animal wellbeing and behavior, including grooming and ambulation were monitored twice daily. General health of mice was monitored and mortality recorded daily. Any moribund animals were sacrificed.
(§1) Animals were weight at dosing day(s) and dose was body weight adjusted, dosing volume was 10 mL/kg. Tumor dimensions and body weights were collected at the time of randomization and twice weekly thereafter for the study duration. The following data were provided after each day of data collection: incidence of mortality, individual and group average body weights, and individual and group average tumor volume.
The % change in body was calculated as (BWcurrent−BWinitial)/(BWinitial)×100. Data is presented as percent body weight change from the day of treatment initiation.

[2] = Stability of test compound dosing formulation; type: physicochemical
Description: LGX818 was dissolved in 0.5% CMC/0.5% Tween 80.
MEK162 was dissolved in 1% CMC/0.5% Tween 80.

[3] = test system: HT-29 BRAF mutant colorectal cancer (CRC) xenograft tumor model; assay: Anti-tumor efficacy in HT-29 colon cancer xenograft model (study TRP-377-HT29-XEF); type: in vivo, female nude mice (Mus musculus); conditions: HT-29 xenograft, day 43 after 21 days of treatment; LGX818 20 mg/kg po qd, MEK162 3.5 mg/kg po bid, cetuximab 20 mg/kg ip 2qw
Description: as §1
All data were expressed as mean±standard error of the mean (SEM). […] For all statistical evaluations, the level of significance was set at p<0.05. Significance compared to the vehicle control group is reported unless otherwise stated.

What does the source list for `COC(=O)N[C@@H](C)CNc1nccc(-c2cn(C(C)C)nc2-c2cc(Cl)cc(NS(C)(=O)=O)c2F)n1` [LGX818, methyl N-[(2S)-1-({4-[3-(5-chloro-2-fluoro-3-methanesulfonamidophenyl)-1-(propan-2-yl)-1H-pyrazol-4-yl]pyrimidin-2-yl}amino)propan-2-yl]carbamate]?
% Maximum BW change (day) [1]: −1.6 ± 0.98 (day 29) %; Stability of dosing formulation ([2]; dissolved in 0.5% CMC/0.5% Tween 80, room temperature): stable for at least one week; T/C (percent tumor volume change treated over control group) [3]: 42%

For `Cn1cnc2c(F)c(Nc3ccc(Br)cc3F)c(C(=O)NOCCO)cc21` [MEK162, 6-(4-bromo-2-fluorophenylamino)-7-fluoro-3-methyl-3H-benzoimidazole-5-carboxylic acid (2-hydroxyethoxy)-amide], which “% Maximum BW change (day)” value [1] is on record?
The value was −4.1 ± 1.02 (day 29) %.

And the “Stability of dosing formulation” value ([2]; dissolved in 1% CMC/0.5% Tween 80, room temperature)?
The value was “stable for at least one week”.

What about the “T/C (percent tumor volume change treated over control group)” value [3] of the same compound?
Its value is 28%.
